According to patent US6914045B2, “Glycopeptide antibiotics” (Wyeth Holdings Corporation, priority 2001, dated 2005):
Values after ≈ are worked out from the molar mass of the structure shown.

Legend:
Assay in all cases: in vitro antibacterial evaluation, MIC by broth dilution
Assay type in all cases: cell-based
Enterococcus sp. = conditions: broth dilution, 18 hours at 35° C.
In short: (§1)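 Read-out: the lowest concentration at which the test strain fails to grow. Serial dilutions (64-0.06 μg/mL) in Muller-Hinton II […], 5×10^5 CFU/mL inoculum, NCCLS M7-A2 procedure.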

Escherichia coli = test system: Escherichia coli
In short: as §1

Staphylococcus sp. = conditions: broth dilution, 18 hours at 35° C.; for MIC Staphylococcus aureus (GC 1131): strain GC 1131
In short: as §1

Streptococcus sp. = conditions: broth dilution, 18 hours at 35° C.
In short: as §1

MIC Enterococcus avium (GC 4558) (Enterococcus sp.; Enterococcus avium (GC 4558)): 4 µg/mL (≈ 2.8 µM)
MIC Enterococcus faecalis (ATCC 29212) (Enterococcus sp.; Enterococcus faecalis (ATCC 29212)): 2 µg/mL (≈ 1.4 µM)
MIC Enterococcus faecalis (GC 2242) (Enterococcus sp.; Enterococcus faecalis (GC 2242)): 2 µg/mL (≈ 1.4 µM)
MIC Enterococcus faecalis (GC 2691) (Enterococcus sp.; Enterococcus faecalis (GC 2691)): 2 µg/mL (≈ 1.4 µM)
MIC Enterococcus faecalis (GC 3059) (Enterococcus sp.; Enterococcus faecalis (GC 3059)): 4 µg/mL (≈ 2.8 µM)
MIC Enterococcus faecalis (GC 4552) (Enterococcus sp.; Enterococcus faecalis (GC 4552)): 2 µg/mL (≈ 1.4 µM)
MIC Enterococcus faecalis (GC 4553) (Enterococcus sp.; Enterococcus faecalis (GC 4553)): 4 µg/mL (≈ 2.8 µM)
MIC Enterococcus faecalis (GC 4554) (Enterococcus sp.; Enterococcus faecalis (GC 4554)): 4 µg/mL (≈ 2.8 µM)
MIC Enterococcus faecalis (GC 6189) (Enterococcus sp.; Enterococcus faecalis (GC 6189)): 2 µg/mL (≈ 1.4 µM)
MIC Enterococcus faecium (GC 2243) (Enterococcus sp.; Enterococcus faecium (GC 2243)): 2 µg/mL (≈ 1.4 µM)
MIC Enterococcus faecium (GC 4556) (Enterococcus sp.; Enterococcus faecium (GC 4556)): 2 µg/mL (≈ 1.4 µM)
MIC Enterococcus faecium (GC 4557) (Enterococcus sp.; Enterococcus faecium (GC 4557)): 2 µg/mL (≈ 1.4 µM)
MIC Enterococcus faecalis (ATCC 29212) (Enterococcus sp.; strain ATCC 29212): 2 µg/mL (≈ 1.4 µM)
MIC Enterococcus faecalis (GC 2242) (Enterococcus sp.; strain GC 2242): 2 µg/mL (≈ 1.4 µM)
MIC Enterococcus faecium (GC 2243) (Enterococcus sp.; strain GC 2243): 2 µg/mL (≈ 1.4 µM)
MIC Enterococcus faecalis (GC 2691) (Enterococcus sp.; strain GC 2691): 2 µg/mL (≈ 1.4 µM)
MIC Enterococcus faecalis (GC 3059) (Enterococcus sp.; strain GC 3059): 4 µg/mL (≈ 2.8 µM)
MIC Enterococcus faecalis (GC 4552) (Enterococcus sp.; strain GC 4552): 2 µg/mL (≈ 1.4 µM)
MIC Enterococcus faecalis (GC 4553) (Enterococcus sp.; strain GC 4553): 4 µg/mL (≈ 2.8 µM)
MIC Enterococcus faecalis (GC 4554) (Enterococcus sp.; strain GC 4554): 4 µg/mL (≈ 2.8 µM)
MIC Enterococcus faecium (GC 4556) (Enterococcus sp.; strain GC 4556): 2 µg/mL (≈ 1.4 µM)
MIC Enterococcus faecium (GC 4557) (Enterococcus sp.; strain GC 4557): 2 µg/mL (≈ 1.4 µM)
MIC Enterococcus avium (GC 4558) (Enterococcus sp.; strain GC 4558): 4 µg/mL (≈ 2.8 µM)
MIC Enterococcus faecalis (GC 6189) (Enterococcus sp.; strain GC 6189): 2 µg/mL (≈ 1.4 µM)
MIC Escherichia coli (ATCC 25922) (Escherichia coli; strain ATCC 25922, 18 hours at 35° C.): 32 µg/mL (≈ 22.4 µM)
MIC Escherichia coli (GC 4559) (Escherichia coli; strain GC 4559, 18 hours at 35° C.): 32 µg/mL (≈ 22.4 µM)
MIC Staphylococcus aureus (GC 1131) (Staphylococcus sp.; inoculum 5×10^5 CFU/mL): 1 µg/mL (≈ 0.7 µM)
MIC Staphylococcus aureus (ATCC 29213) (Staphylococcus sp.; strain ATCC 29213): 2 µg/mL (≈ 1.4 µM)
MIC Staphylococcus aureus (GC 1131) (Staphylococcus sp.): 1 µg/mL (≈ 0.7 µM)
MIC Staphylococcus aureus (GC 3051) (Staphylococcus sp.; strain GC 3051): 1 µg/mL (≈ 0.7 µM)
MIC Staphylococcus aureus (GC 3053) (Staphylococcus sp.; strain GC 3053): 1 µg/mL (≈ 0.7 µM)
MIC Staphylococcus aureus (GC 4541) (Staphylococcus sp.; strain GC 4541): 0.5 µg/mL (≈ 0.35 µM)
MIC Staphylococcus aureus (GC 4542) (Staphylococcus sp.; strain GC 4542): 0.5 µg/mL (≈ 0.35 µM)
MIC Staphylococcus aureus-SMITH (GC 4543) (Staphylococcus sp.; strain GC 4543): 1 µg/mL (≈ 0.7 µM)
MIC Staphylococcus aureus (GC 4544) (Staphylococcus sp.; strain GC 4544): 4 µg/mL (≈ 2.8 µM)
MIC Staphylococcus aureus (GC 4545) (Staphylococcus sp.; strain GC 4545): 1 µg/mL (≈ 0.7 µM)
MIC Coagulase Negative Staphylococcus (GC 4547) (Staphylococcus sp.; strain GC 4547): 1 µg/mL (≈ 0.7 µM)
MIC Coagulase Negative Staphylococcus (GC 4548) (Staphylococcus sp.; strain GC 4548): 0.25 µg/mL (≈ 0.175 µM)
MIC Coagulase Negative Staphylococcus (GC 4549) (Staphylococcus sp.; strain GC 4549): 0.12 µg/mL (≈ 0.0839 µM)
MIC Coagulase Negative Staphylococcus (GC 4551) (Staphylococcus sp.; strain GC 4551): 0.5 µg/mL (≈ 0.35 µM)
MIC Coagulase Negative Staphylococcus (GC 6257) (Staphylococcus sp.; strain GC 6257): 0.25 µg/mL (≈ 0.175 µM)
MIC Staphylococcus aureus-SMITH (GC 4543) (Staphylococcus sp.; strain SMITH GC 4543): 1 µg/mL (≈ 0.7 µM)
MIC Streptococcus agalactiae (GC 4564) (Streptococcus sp.; Streptococcus agalactiae (GC 4564)): <0.06 µg/mL
MIC Streptococcus pneumoniae (ATCC 6301) (Streptococcus sp.; Streptococcus pneumoniae (ATCC 6301)): <0.06 µg/mL
MIC Streptococcus pneumoniae (GC 1894) (Streptococcus sp.; Streptococcus pneumoniae (GC 1894)): <0.06 µg/mL
MIC Streptococcus pneumoniae (GC 4565) (Streptococcus sp.; Streptococcus pneumoniae (GC 4565)): <0.06 µg/mL
MIC Streptococcus pyogenes (GC 4563) (Streptococcus sp.; Streptococcus pyogenes (GC 4563)): <0.06 µg/mL
MIC Streptococcus pneumoniae (ATCC 6301) (Streptococcus sp.; strain ATCC 6301): <0.06 µg/mL
MIC Streptococcus pneumoniae (GC 1894) (Streptococcus sp.; strain GC 1894): <0.06 µg/mL
MIC Streptococcus pyogenes (GC 4563) (Streptococcus sp.; strain GC 4563): <0.06 µg/mL
MIC Streptococcus agalactiae (GC 4564) (Streptococcus sp.; strain GC 4564): <0.06 µg/mL
MIC Streptococcus pneumoniae (GC 4565) (Streptococcus sp.; strain GC 4565): <0.06 µg/mL
Compound: CSc1ccc(C2OCC3OC(OC4C(CO)OC(Oc5ccc(CC6NC(=O)C(C(C)c7ccccc7)NC(=O)CNC(=O)C(CO)NC(=O)C(C(O)C7CNC(=N)N7C7OC(CO)C(O)C(O)C7O)NC(=O)C(C(O)C7CNC(=N)N7)NC6=O)cc5)C(O)C4O)C(O)C(O)C3O2)cc1 (centres unmarked) [Example 144]
MIC Staphylococcus haemolyticus (GC 4546) (Staphylococcus sp.; strain GC 4546): 1 µg/mL (≈ 0.7 µM)
